Strand notation (5' to 3'): a small letter for the sugar, then the base; units joined by * are phosphorothioate-linked, units joined directly phosphodiester-linked; [ ] holds rarer units or linkages, { } end groups; capitals alone tell only the bases. [ms] = mesyl phosphoramidate linkage; e = 2'-O-(2-methoxyethyl) (MOE); k = constrained ethyl (cEt); [5mC] = 5-methylcytosine; d = 2'-deoxy (DNA)
How the values were obtained:
[1] = test system: human APOE RNA; experiment: Activity in APOE C57BL/6NTac-Apoeem7250 knock-in mice, single ICV bolus, 4 weeks (Example 10); type: in vivo; conditions: single ICV bolus 300 μg, 4 weeks post treatment, normalized to mouse Ppia
How it was run: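 Knock-in mice (2–4 per group) received one 300 μg ICV bolus of oligonucleotide or PBS. After four weeks, human APOE RNA in cortex and spinal cord measured by RT-qPCR (primer probe set RTS3073), normalized to mouse Ppia, expressed as % of PBS controls.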

[2] = test system: human APOE RNA; experiment: Activity in APOE C57BL/6NTac-Apoeem7250 knock-in mice, single ICV bolus, 20 weeks (Example 13); type: in vivo; conditions: single ICV bolus 300 μg, 20 weeks post treatment, normalized to mouse Ppia
How it was run: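 Knock-in mice (n=4) given a single ICV bolus of 300 μg oligonucleotide, PBS as control. After 20 weeks, human APOE RNA in cortex and spinal cord measured by RT-qPCR, normalized to mouse Ppia, expressed as % of PBS-treated animals.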

| Substance | APOE RNA (% control) Cortex [1] [% control] | APOE RNA (% control) Spinal Cord [1] [% control] | APOE RNA (% control) Cortex [2] [% control] | APOE RNA (% control) Spinal Cord [2] [% control] |
| --- | --- | --- | --- | --- |
| 1779706 (e[5mC]*eTeTkGkG*dT[ms]dG[ms]dA[ms]dA*dT*d[5mC]*dT*dT*dT*dA*dT*eT*eA*eA*eA; antisense) [Compound 1779706] | 35 | 53 | 46 | 36 |
| 1757573 (eA*e[5mC]eTeT*eG*eG*dT*dG[ms]dA[ms]dA[ms]dT*d[5mC]*dT*dT*dT*dA[ms]kT*eT*eA*eA; antisense) [Compound 1757573] | 53 | 38 | 61 | 42 |
| 1785589 (k[5mC]*kT*kT*dG[ms]dG[ms]dT[ms]dG*dA*dA*dT[ms]d[5mC][ms]dT*dT*dT*dA*dT*kT*kA*dA[ms]kA; antisense) [Compound 1785589] | 32 | 40 | 49 | 30 |
| 1778108 (eA*e[5mC]eTeTeG*kG*dT*dG[ms]dA[ms]dA*dT*d[5mC]*dT*dT*dT*dA[ms]eT*eT*eA*eA; antisense) [Compound 1778108] | 60 | 41 | 70 | 21 |
| 1778107: 6-10-4 MOE gapmer ACTTGGTGAATCTTTATTAA, linkages sooossszzsssssszsss (eA*e[5mC]eTeTeG*eG*dT*dG[ms]dA[ms]dA*dT*d[5mC]*dT*dT*dT*dA[ms]eT*eT*eA*eA) [compound 1778107] | 70 | 70 | 76 | 32 |
| 1778110: 6-10-4 MOE gapmer ACTTGGTGAATCTTTATTAA, linkages soooosszzsssssszoss (eA*e[5mC]eTeTeGeG*dT*dG[ms]dA[ms]dA*dT*d[5mC]*dT*dT*dT*dA[ms]eTeT*eA*eA) [compound 1778110] | 51 | 51 | 81 | 35 |
| 1778122 (eA*e[5mC]eTeTeG*eG*dT*dG[ms]dA[ms]dA*dT*d[5mC]*dT*dT*dT*dA[ms]kT*kT*eA*eA; antisense) [Compound 1778122] | 53 | 62 | 76 | 34 |
